Molecules are shown by their SMILES. Activity calls are given as the source filed them. The calls are words filed in the database; no cut-off is given here.

We go through 1 molecule from ChEMBL document CHEMBL4265916, “Synthesis and antiproliferative activities of novel quartenary ammonium spinosyn derivatives” (Bioorg Med Chem Lett, 2018).

For experiment [1], the system named is MCF7. As to the kind of experiment: Antiproliferative activity against human MCF7 cells at 50 uM after 48 hrs by MTT assay. It is filed as functional.
Experiment [2] concerns NCI-H460. As to the kind of experiment: Induction of apoptosis in human NCI-H460 cells assessed as early apoptotic cells at 32 uM after 48 hrs by Annexin V-FITC/propidium iodide staining-based flow cytometric analysis (reference value: 2.17%). It is filed as functional.
The subject of experiment [3] is NCI-H460. As to the kind of experiment: Induction of apoptosis in human NCI-H460 cells assessed as late apoptotic cells at 64 uM after 48 hrs by Annexin V-FITC/propidium iodide staining-based flow cytometric analysis (reference value: 1.80%). It is filed as functional.
The subject of experiment [4] is NCI-H460. As to the kind of experiment: Induction of apoptosis in human NCI-H460 cells assessed as early apoptotic cells at 64 uM after 48 hrs by Annexin V-FITC/propidium iodide staining-based flow cytometric analysis (reference value: 2.17%). It is filed as functional.
Experiment [5] deals with MCF7. Put plainly: Antiproliferative activity against human MCF7 cells after 48 hrs by MTT assay. Format: functional, cell-based. As to conditions: MCF7, 48 h.
Experiment [6] concerns NCI-H460. As to the kind of experiment: Inhibition of oxygen consumption rate in human NCI-H460 cells at 32 uM after 1 hr. It is filed as functional.
The subject of experiment [7] is NCI-H460. Put plainly: Antiproliferative activity against human NCI-H460 cells after 48 hrs by MTT assay. Format: functional, cell-based. To be noted: NCI-H460, 48 h.
For experiment [8], the system named is NCI-H460. As to the kind of experiment: Induction of apoptosis in human NCI-H460 cells after 48 hrs by Annexin V-FITC/propidium iodide staining-based flow cytometric analysis. It is filed as functional, cell-based.
Experiment [9] deals with NCI-H460. Put plainly: Induction of apoptosis in human NCI-H460 cells assessed as necrotic cells at 64 uM after 48 hrs by Annexin V-FITC/propidium iodide staining-based flow cytometric analysis (reference value: 2.11%). Format: functional.
Experiment [10] deals with NCI-H460. Put plainly: Induction of apoptosis in human NCI-H460 cells assessed as late apoptotic cells at 32 uM after 48 hrs by Annexin V-FITC/propidium iodide staining-based flow cytometric analysis (reference value: 1.80%). Format: functional.
Experiment [11] relates to NCI-H460. As to the kind of experiment: Growth inhibition of human NCI-H460 cells at 32 uM after 48 hrs by MTT assay. It is filed as functional, cell-based.
The test system of experiment [12] is HCT-116. As to the kind of experiment: Antiproliferative activity against human HCT116 cells after 48 hrs by MTT assay. As to conditions: HCT-116, 48 h. It is filed as functional, cell-based.
The test system of experiment [13] is NCI-H460. As to the kind of experiment: Induction of apoptosis in human NCI-H460 cells assessed as necrotic cells at 32 uM after 48 hrs by Annexin V-FITC/propidium iodide staining-based flow cytometric analysis (reference value: 2.11%). It is filed as functional.
The test system of experiment [14] is NCI-H460. As to the kind of experiment: Induction of apoptosis in human NCI-H460 cells assessed as viable cells at 64 uM after 48 hrs by Annexin V-FITC/propidium iodide staining-based flow cytometric analysis (reference value: 93.9%). It is filed as functional. To be noted: NCI-H460, 48 h, read-out: Activity.
The test system of experiment [15] is U-87 MG. Put plainly: Antiproliferative activity against human U87MG cells after 48 hrs by MTT assay. It is filed as functional, cell-based, U-87MG ATCC.
Experiment [16] deals with NCI-H460. As to the kind of experiment: Induction of apoptosis in human NCI-H460 cells assessed as viable cells at 32 uM after 48 hrs by Annexin V-FITC/propidium iodide staining-based flow cytometric analysis (reference value: 93.9%). Format: functional. To be noted: NCI-H460, 48 h, read-out: Activity.

As for `CC[C@H]1CCC[C@H](O[C@H]2CC[C@H](N(C)C)[C@@H](C)O2)[C@@H](C)C(=O)C2=C[C@@H]3[C@@H](C=C[C@@H]4C[C@@H](O[C@@H]5O[C@@H](C)[C@H](OC)[C@@H](OC)[C@H]5OC)C[C@@H]34)[C@@H]2CC(=O)O1` [SPINOSYN A], the Activity was 92.6% in experiment [1]; 3.11% in experiment [2]; 5.33% in experiment [3]; 4.53% in [4]; “Dose-dependent effect” in [8]; 2.33% in experiment [9]. Also, the results for the Activity in [10] and in experiment [13] were 4.41% and 1.69%, respectively. The IC50 in experiment [5] came to 16.7 µM; in experiment [7], 66 µM; in experiment [12], 10.7 µM; in experiment [15] it was 104 µM. Also, the inhibition result in experiment [6] was “Active”. In addition, the “growth inhibition (GI)” value in [11] is “inactive”. Also, the viability at 64 µM in experiment [14] was determined as 87.8%. The viability at 32 µM in experiment [16] stood at 90.8%.
